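Grown in 96-well plates, cells were treated for 48 hours with each compound at five concentrations. Insufficient inhibition: endpoint recorded as highest concentration tested. At the GI50, growth is halved. At the TGI there is no net growth.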
Assays:
Assay in all cases: growth of human tumour cells (NCI), 48 h
IGROV1 ovarian = tested on: IGROV1 ovarian
OVCAR-4 ovarian = tested on: OVCAR-4 ovarian
SF-295 CNS = tested on: SF-295 CNS
HS 578T breast = tested on: HS 578T breast
HT29 colon = tested on: HT29 colon
HOP-62 NSCLC = tested on: HOP-62 NSCLC
CAKI-1 renal = tested on: CAKI-1 renal
MALME-3M melanoma = tested on: MALME-3M melanoma
SNB-75 CNS = tested on: SNB-75 CNS
RXF 393 renal = tested on: RXF 393 renal

SMILES | TGI (IGROV1 ovarian) [µM] | TGI (OVCAR-4 ovarian) [µM] | TGI (SF-295 CNS) [µM] | TGI (HS 578T breast) [µM] | TGI (HT29 colon) [µM] | TGI (HOP-62 NSCLC) [µM] | TGI (CAKI-1 renal) [µM] | TGI (MALME-3M melanoma) [µM] | TGI (SNB-75 CNS) [µM] | TGI (RXF 393 renal) [µM] | GI50 (IGROV1 ovarian) [µM] | GI50 (OVCAR-4 ovarian) [µM] | GI50 (HS 578T breast) [µM] | GI50 (HT29 colon) [µM] | GI50 (CAKI-1 renal) [µM] | GI50 (MALME-3M melanoma) [µM] | GI50 (SNB-75 CNS) [µM] | GI50 (RXF 393 renal) [µM]
N#C/C=C(/NC(=O)Nc1ccccc1)N1CCCC1 | > 76.3 | > 100 | > 43.8 | > 100 | > 100 | > 35.8 | > 59.8 | > 66.9 | > 21.4 | > 100 |  |  |  |  |  |  |  | 
Nc1nc(N)c2cc(-c3cc4ccccc4[nH]3)ccc2n1 | 33.4 | 63.5 | 90.2 | > 100 | 38.9 | > 100 | 94.9 | 30.4 | > 100 | 48.4 |  |  |  |  |  |  |  | 
CC(=O)N1N=C(c2ccccc2)NC(=O)C1c1cc(C)c(O)c(C)c1 (centres undefined) | 72.7 | 43.3 | 43.8 | > 100 | > 100 | 35.3 | > 100 | 38.1 | 37.5 | 31.2 |  |  |  |  |  |  |  | 
COP(=O)(OC)[C@@](O)(c1ccccc1)[C@@H](O)[C@H](O)c1ccccc1 | > 100 | > 100 | > 100 | > 100 | > 100 |  | > 100 | > 100 | > 100 | > 100 |  |  |  |  |  |  |  | 
Cc1cc2c(cc1Cl)SSc1cc(Cl)c(C)cc1S(=O)(=O)Nc1nc(N)nn1C(O)n1nc(N)nc1NS2(=O)=O | > 10 | > 10 | > 10 | > 10 | > 10 | > 10 | > 10 | > 10 | > 10 | > 10 |  |  |  |  |  |  |  | 
CCOP(=O)(OCC)/C(C#N)=C/c1nc[nH]c1C | > 100 | > 100 | > 100 | > 100 | > 100 | > 100 | > 100 | > 100 | > 100 | > 100 |  |  |  |  |  |  |  | 
Cc1ccc2[nH]c3c(c2c1)C1CCC(C(C)(C)C)CC1C1C(=O)N(c2ccc(Oc4ccccc4)cc2)C(=O)C31 (centres undefined) | > 100 | 42.6 | > 100 | 8.28 | > 100 | > 100 | 45.4 | 41.9 | 9.08 | 29.1 |  |  |  |  |  |  |  | 
Cc1cc2c3c(c1)S(=O)(=O)c1cc(Cl)ccc1N3CCC2 | > 100 | > 100 | > 100 | > 100 | > 100 | > 100 | > 100 | > 100 | > 100 | > 100 |  |  |  |  |  |  |  | 
COc1ccc(OC)c([N+](=O)[O-])c1-c1nc2sc(Cl)cn2c1/C=N/N=C(N)N | 28.8 | 30.1 | 50.2 | 51.7 | 34 | > 100 | 38.5 | 42.4 | 24.9 | 48.3 |  |  |  |  |  |  |  | 
CC1=NN(c2ccccc2)C(=O)/C1=C1\SC(c2ccccc2)(c2ccccc2)c2ccccc21 | > 100 | > 100 | > 100 | > 100 | > 100 | > 100 | > 100 | > 100 | > 100 | > 100 |  |  |  |  |  |  |  | 
COC(=O)c1sc2nc(Nc3ccccc3)c(=Nc3ccccc3)sc2c1C | > 100 | > 100 | > 100 | > 100 | > 100 | > 100 | > 100 | > 100 | > 100 | 80.5 |  |  |  |  |  |  |  | 
O=C1C(NS(=O)(=O)c2ccccc2)=C(n2ccnc2)C(=O)c2ccccc21 | > 100 | > 100 | > 100 | > 100 | > 100 | > 100 | > 100 | > 100 | > 100 | > 100 |  |  |  |  |  |  |  | 
COc1cc2ncnc(Nc3cccc(Br)c3)c2cc1OC | 29.6 | > 49.8 | 14.3 | 53.2 | 18.8 | > 41.2 | > 52.1 | 32.2 | 29.3 | 53 |  |  |  |  |  |  |  | 
O=C1O/C(=C(\Br)c2ccc([N+](=O)[O-])cc2)c2ccccc21 | > 100 | > 100 | > 100 | > 100 | > 88.5 | > 100 | > 100 | > 100 | > 100 | > 100 |  |  |  |  |  |  |  | 
O=C(Nc1ccc(Cl)cc1)c1cc(S(=O)(=O)Nc2nc3ncccc3[nH]2)c(SSc2cc(Cl)c(C(=O)Nc3ccc(Cl)cc3)cc2S(=O)(=O)Nc2nc3ncccc3[nH]2)cc1Cl | > 100 | > 100 | > 100 | > 100 | > 100 | > 100 | > 100 | > 100 | > 100 | > 100 |  |  |  |  |  |  |  | 
COc1cc2c(c3nc4ccccc4nc13)-c1ccc(SC)c(=O)cc1[C@@H](NC(C)=O)CC2 | 0.528 | > 69.2 | > 100 | 0.0543 |  | > 100 | > 100 | 0.0861 | > 100 | > 100 |  |  |  |  |  |  |  | 
COc1ccc(-c2nc(-c3nc4cc(Cl)c(Cl)cc4[nH]3)c3ccccn23)cc1 | > 100 | 4.9 |  | 7.02 | > 100 |  | > 100 | 5.85 | 3.23 | 4.26 | 3.73 | 2 | 2.68 | 4.42 | 3.32 | 2.51 | 1.73 | 1.76

From PubChem BioAssay (NCI)
